Measurements taken from patent US10059701B2 (Merck Patent GmbH, priority 2015, dated 2018).

Legend:
[1] = target: T1, IRAK4 (Homo sapiens, UniProt Q9NWZ3); assay: IRAK4 enzymatic assay (ADP-Glo luminescence); type: biochemical; conditions: purified human recombinant His-TEV-IRAK4 (1-460), ATP 2 μM
T1 construct: His-TEV-IRAK4 (1-460); His (N); TEV cleavage site (N)
T1 sequence (Q9NWZ3 1-460): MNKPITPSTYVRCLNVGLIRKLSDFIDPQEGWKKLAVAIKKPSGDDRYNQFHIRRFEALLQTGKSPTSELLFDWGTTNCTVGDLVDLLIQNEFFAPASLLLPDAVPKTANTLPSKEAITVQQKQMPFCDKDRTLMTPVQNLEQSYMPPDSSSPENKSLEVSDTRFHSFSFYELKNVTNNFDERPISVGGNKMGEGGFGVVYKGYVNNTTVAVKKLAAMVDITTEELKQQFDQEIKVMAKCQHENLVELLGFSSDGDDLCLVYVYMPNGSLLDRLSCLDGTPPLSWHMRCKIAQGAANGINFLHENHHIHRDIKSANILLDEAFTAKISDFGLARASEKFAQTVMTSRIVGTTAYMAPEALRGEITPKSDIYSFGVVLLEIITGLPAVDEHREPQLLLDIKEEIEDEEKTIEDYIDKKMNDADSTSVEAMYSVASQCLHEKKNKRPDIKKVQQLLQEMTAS
Outline: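 ADP-Glo luminescence read-out after a 2 h RT kinase reaction with 2 μM ATP and 300 nM biotinylated STK1 peptide. Enzyme (His-TEV-IRAK4 1-460, 0.3 μg/ml) first incubated 15 min with serially diluted compounds (10 μM–0.5 nM) in 50 mM Hepes pH 7.0, 10 mM MgCl2, 5 mM MnCl2.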

[2] = target: T2, IRAK1 (Homo sapiens, UniProt P51617); assay: IRAK1 enzymatic assay (ADP-Glo luminescence); type: biochemical; conditions: purified human recombinant His-TEV-IRAK1 (194-712)
T2 construct: His-TEV-IRAK1 (194-712); His (N); TEV cleavage site (N)
Outline: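 Luminescent ADP-Glo read-out of ATP turnover by purified His-TEV-IRAK1 (194-712) at 0.3 μg/ml after a 2-hour RT reaction. Compounds, serially diluted from 10 μM to 0.5 nM, were preincubated with enzyme 15 minutes in Hepes pH 7.0 buffer with MgCl2, DTT, EGTA and Triton X-100.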

T2 sequence (P51617 194-712): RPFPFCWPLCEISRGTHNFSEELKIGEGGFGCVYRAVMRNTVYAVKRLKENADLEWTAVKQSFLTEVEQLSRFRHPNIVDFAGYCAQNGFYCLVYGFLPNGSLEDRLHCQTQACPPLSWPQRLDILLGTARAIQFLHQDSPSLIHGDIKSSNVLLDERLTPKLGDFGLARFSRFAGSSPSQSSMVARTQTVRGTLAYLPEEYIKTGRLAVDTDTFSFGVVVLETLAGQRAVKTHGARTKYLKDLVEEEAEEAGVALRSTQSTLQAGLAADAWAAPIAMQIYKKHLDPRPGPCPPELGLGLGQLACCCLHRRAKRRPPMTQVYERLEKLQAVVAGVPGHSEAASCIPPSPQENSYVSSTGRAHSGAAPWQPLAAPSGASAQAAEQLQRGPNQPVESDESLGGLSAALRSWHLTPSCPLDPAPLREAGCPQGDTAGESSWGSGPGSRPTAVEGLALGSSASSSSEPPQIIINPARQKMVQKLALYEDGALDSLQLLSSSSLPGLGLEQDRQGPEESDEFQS

SMILES | IC50 [1] | IC50 [2]
CSCCCn1/c(=N/C(=O)c2cccc(C(F)F)c2)[nH]c2cc(N3CCOCC3=O)ccc21 [Compound 92, (E)-3-(difluoromethyl)-N-(1-(3-(methylthio)propyl)-5-(3-oxomorpholino)-1H-benzo[d]imidazol-2(3H)-ylidene)benzamide] | ≤ 100 nM | 100 to 1000 nM
CS(=O)(=O)CCn1/c(=N/C(=O)c2cccc(C(F)F)c2)[nH]c2cc(N3CCOCC3=O)ccc21 [Compound 93, (E)-3-(difluoromethyl)-N-(1-(2-(methylsulfonyl)ethyl)-5-(3-oxomorpholino)-1H-benzo[d]imidazol-2(3H)-ylidene)benzamide] | ≤ 100 nM | ≤ 100 nM
C[S+]([O-])CCn1/c(=N/C(=O)c2cccc(C(F)F)c2)[nH]c2cc(N3CCOCC3=O)ccc21 (centres unmarked) [Compound 94, (E)-3-(difluoromethyl)-N-(1-(2-(methylsulfinyl)ethyl)-5-(3-oxomorpholino)-1H-benzo[d]imidazol-2(3H)-ylidene)benzamide] | ≤ 100 nM | 100 to 1000 nM
CNS(=O)(=O)c1cccc(C(=O)/N=c2\[nH]c3cc(N4CCOCC4=O)ccc3n2CCCO)c1 [Compound 97, (E)-N-(1-(3-hydroxypropyl)-5-(3-oxomorpholino)-1H-benzo[d]imidazol-2(3H)-ylidene)-3-(N-methylsulfamoyl)benzamide] | ≤ 100 nM | ≤ 100 nM
NS(=O)(=O)c1cccc(C(=O)/N=c2\[nH]c3cc(N4CCOCC4=O)ccc3n2CCCO)c1 [Compound 100, (E)-N-(1-(3-hydroxypropyl)-5-(3-oxomorpholino)-1H-benzo[d]imidazol-2(3H)-ylidene)-3-sulfamoylbenzamide] | ≤ 100 nM | ≤ 100 nM
CN(C)S(=O)(=O)c1cccc(C(=O)/N=c2\[nH]c3cc(N4CCOCC4=O)ccc3n2CCCO)c1 [Compound 101, (E)-3-(N,N-dimethylsulfamoyl)-N-(1-(3-hydroxypropyl)-5-(3-oxomorpholino)-1H-benzo[d]imidazol-2(3H)-ylidene)benzamide] | ≤ 100 nM | 100 to 1000 nM
O=C(/N=c1\[nH]c2cc(N3CCOCC3=O)ccc2n1CCCO)c1ccc2nc[nH]c2c1 [Compound 102, (E)-N-(1-(3-hydroxypropyl)-5-(3-oxomorpholino)-1H-benzo[d]imidazol-2(3H)-ylidene)-1H-benzo[d]imidazole-6-carboxamide] | > 1000 nM | > 1000 nM
CC(F)(F)c1cccc(C(=O)/N=c2\[nH]c3cc(N4CCOCC4=O)ccc3n2CCCO)c1 [Compound 103, (E)-3-(1,1-difluoroethyl)-N-(1-(3-hydroxypropyl)-5-(3-oxomorpholino)-1H-benzo[d]imidazol-2(3H)-ylidene)benzamide] | ≤ 100 nM | 100 to 1000 nM
O=C(/N=c1\[nH]c2cc(N3CCOCC3=O)ccc2n1CCCO)c1cccc(CF)c1 [Compound 104, (E)-3-(fluoromethyl)-N-(1-(3-hydroxypropyl)-5-(3-oxomorpholino)-1H-benzo[d]imidazol-2(3H)-ylidene)benzamide] | ≤ 100 nM | 100 to 1000 nM
Cc1cccc(C(=O)/N=c2\[nH]c3cc(N4CCOCC4=O)ccc3n2CCCO)c1 [Compound 105, (E)-N-(1-(3-hydroxypropyl)-5-(3-oxomorpholino)-1H-benzo[d]imidazol-2(3H)-ylidene)-3-methylbenzamide] | ≤ 100 nM | 100 to 1000 nM
O=C(/N=c1\[nH]c2cc(N3CCOCC3=O)ccc2n1CCCO)c1cccc(Cl)c1 [Compound 106, (E)-3-chloro-N-(1-(3-hydroxypropyl)-5-(3-oxomorpholino)-1H-benzo[d]imidazol-2(3H)-ylidene)benzamide] | ≤ 100 nM | 100 to 1000 nM
O=C(/N=c1\[nH]c2cc(N3CCOCC3=O)ccc2n1CCCO)c1cccc(-c2cc[nH]c(=O)c2)c1 [Compound 107, (E)-N-(1-(3-hydroxypropyl)-5-(3-oxomorpholino)-1H-benzo[d]imidazol-2(3H)-ylidene)-3-(2-oxo-1,2-dihydropyridin-4-yl)benzamide] | ≤ 100 nM | ≤ 100 nM
O=C(/N=c1\[nH]c2cc(N3CCNCC3=O)ccc2n1CCCO)c1cccc(C(F)(F)F)c1 [Compound 108, (E)-N-(1-(3-hydroxypropyl)-5-(2-oxopiperazin-1-yl)-1H-benzo[d]imidazol-2(3H)-ylidene)-3-(trifluoromethyl)benzamide] | ≤ 100 nM | ≤ 100 nM
O=C(/N=c1\[nH]c2cc(N3CCNCC3=O)ccc2n1CCCO)c1cccc(C(F)F)c1 [Compound 109, (E)-3-(difluoromethyl)-N-(1-(3-hydroxypropyl)-5-(2-oxopiperazin-1-yl)-1H-benzo[d]imidazol-2(3H)-ylidene)benzamide] | ≤ 100 nM | 100 to 1000 nM
CC(=O)N1CCN(c2ccc3c(c2)[nH]/c(=N\C(=O)c2cccc(C(F)F)c2)n3CCCO)C(=O)C1 [Compound 110, (E)-N-(5-(4-acetyl-2-oxopiperazin-1-yl)-(1-(3-hydroxypropyl)-1H-benzo[d]imidazol-2(3H)-ylidene))-3-(difluoromethyl)benzamide] | ≤ 100 nM | ≤ 100 nM
CN1CCN(c2ccc3c(c2)[nH]/c(=N\C(=O)c2cccc(C(F)F)c2)n3CCCO)C(=O)C1 [Compound 111, (E)-3-(difluoromethyl)-N-(1-(3-hydroxypropyl)-5-(4-methyl-2-oxopiperazin-1-yl)-1H-benzo[d]imidazol-2(3H)-ylidene)benzamide] | ≤ 100 nM | 100 to 1000 nM
O=C(/N=c1\[nH]c2cc(N3CCN(CC4CC4)CC3=O)ccc2n1CCCO)c1cccc(C(F)F)c1 [Compound 112, (E)-N-(5-(4-(cyclopropylmethyl)-2-oxopiperazin-1-yl)-1-(3-hydroxypropyl)-1H-benzo[d]imidazol-2(3H)-ylidene)-3-(difluoromethyl)benzamide] | ≤ 100 nM | ≤ 100 nM
O=C(/N=c1\[nH]c2cc(N3CCN(CC(F)(F)F)CC3=O)ccc2n1CCCO)c1cccc(C(F)F)c1 [Compound 113, (E)-3-(difluoromethyl)-N-(1-(3-hydroxypropyl)-5-(2-oxo-4-(2,2,2-trifluoroethyl)piperazin-1-yl)-1H-benzo[d]imidazol-2(3H)-ylidene)benzamide] | ≤ 100 nM | 100 to 1000 nM
O=C(/N=c1\[nH]c2cc(N3CCOCC3=O)ccc2n1C1(CCO)CCCCC1)c1cccc(C(F)(F)F)c1 [Compound 114, (E)-N-(1-(1-(2-hydroxyethyl)cyclohexyl)-5-(3-oxomorpholino)-1H-benzo[d]imidazol-2(3H)-ylidene)-3-(trifluoromethyl)benzamide] | > 1000 nM | > 1000 nM
O=C(/N=c1\[nH]c2cc(N3CCOCC3=O)ccc2n1C1(CCO)CCCCC1)c1cccc(C(F)F)c1 [Compound 115, (E)-3-(difluoromethyl)-N-(1-(1-(2-hydroxyethyl)cyclohexyl)-5-(3-oxomorpholino)-1H-benzo[d]imidazol-2(3H)-ylidene)benzamide] | 100 to 1000 nM | > 1000 nM
O=C(/N=c1\[nH]c2cc(N3CCOCC3=O)ccc2n1C1CCCC(CO)C1)c1cccc(C(F)(F)F)c1 (centres unmarked) [Compound 120, (E)-N-(1-(3-(hydroxymethyl)cyclohexyl)-5-(3-oxomorpholino)-1H-benzo[d]imidazol-2(3H)-ylidene)-3-(trifluoromethyl)benzamide] | ≤ 100 nM | 100 to 1000 nM
O=C(/N=c1\[nH]c2cc(N3CCOCC3=O)ccc2n1C1CCCC(CO)C1)c1cccc(C(F)F)c1 (centres unmarked) [Compound 121, (E)-3-(difluoromethyl)-N-(1-(3-(hydroxymethyl)cyclohexyl)-5-(3-oxomorpholino)-1H-benzo[d]imidazol-2(3H)-ylidene)benzamide] | ≤ 100 nM | 100 to 1000 nM
O=C(/N=c1\[nH]c2cc(N3CCOCC3=O)ccc2n1[C@H]1CC[C@@H](CO)CC1)c1cccc(C(F)(F)F)c1 [Compound 122, cis-(E)-N-(1-(4-(hydroxymethyl)cyclohexyl)-5-(3-oxomorpholino)-1H-benzo[d]imidazol-2(3H)-ylidene)-3-(trifluoromethyl)benzamide] | ≤ 100 nM | ≤ 100 nM
O=C(/N=c1\[nH]c2cc(N3CCOCC3=O)ccc2n1[C@H]1CC[C@@H](CO)CC1)c1cccc(C(F)F)c1 [Compound 123, cis-(E)-3-(difluoromethyl)-N-(1-(4-(hydroxymethyl)cyclohexyl)-5-(3-oxomorpholino)-1H-benzo[d]imidazol-2(3H)-ylidene)benzamide] | ≤ 100 nM | ≤ 100 nM
CC(C)(C)OC(=O)N1CCC(n2/c(=N/C(=O)c3cccc(C(F)(F)F)c3)[nH]c3cc(N4CCOCC4=O)ccc32)CC1 [Compound 126, (E)-tert-butyl 4-(5-(3-oxomorpholino)-2-((3-(trifluoromethyl)benzoyl)imino)-2,3-dihydro-1H-benzo[d]imidazole-1-yl)piperidine-1-carboxylate] | ≤ 100 nM | > 1000 nM
